Measured values reported in paper PMC4623880 (Digestive diseases and sciences, 2015).
“Also recorded” adds a separate entry of the source. Where two headings read alike, the source gives them in different places.

Key:
[1] = type: in vivo, human; conditions: for Cmax: N-desmethyl sildenafil, after 2.5 mg IV bolus sildenafil; for observed maximum concentration of plasma sildenafil: 2.5 mg IV bolus
[2] = cited from earlier work
[3] = Tolerability and hemodynamics; type: in vivo, human; conditions: for tolerability / safety of IV sildenafil: both subjects, single 2.5 mg IV bolus injection
[4] = healthy volunteers; cited from earlier work
[5] = subject 1, 16 min after 2.5 mg IV bolus sildenafil
[6] = subject 1, 30 min after 2.5 mg IV bolus sildenafil
[7] = subject 1, 60 min after 2.5 mg IV bolus sildenafil
[8] = subject 1, 120 min after 2.5 mg IV bolus sildenafil
[9] = subject 1, 178 min after 2.5 mg IV bolus sildenafil
[10] = subject 1, 242 min after 2.5 mg IV bolus sildenafil
[11] = subject 1, 360 min after 2.5 mg IV bolus sildenafil
[12] = subject 1, 480 min after 2.5 mg IV bolus sildenafil
[13] = subject 2, 15 min after 2.5 mg IV bolus sildenafil
[14] = subject 2, 30 min after 2.5 mg IV bolus sildenafil
[15] = subject 2, 60 min after 2.5 mg IV bolus sildenafil
[16] = subject 2, 122 min after 2.5 mg IV bolus sildenafil
[17] = subject 2, 180 min after 2.5 mg IV bolus sildenafil
[18] = subject 2, 240 min after 2.5 mg IV bolus sildenafil
[19] = subject 2, 360 min after 2.5 mg IV bolus sildenafil
[20] = subject 2, 480 min after 2.5 mg IV bolus sildenafil

SMILES: CCCc1nn(C)c2c(=O)[nH]c(-c3cc(S(=O)(=O)N4CCNCC4)ccc3OCC)nc12 [N-desmethyl Sildenafil, N-desmethyl sildenafil]
- Cmax ([1]; subject 1): 2.6 ng/mL
- Cmax ([1]; subject 2): 1.1 ng/mL
- N-desmethyl Sildenafil Concentration ([1]; plasma, subject 1, 16 min after 2.5 mg IV bolus sildenafil): 1.21 ng/mL
- N-desmethyl Sildenafil Concentration ([1]; plasma, subject 1, 30 min after 2.5 mg IV bolus sildenafil): BLQ
- N-desmethyl Sildenafil Concentration ([1]; plasma, subject 1, 60 min after 2.5 mg IV bolus sildenafil): 2.26 ng/mL
- N-desmethyl Sildenafil Concentration ([1]; plasma, subject 1, 88 min after 2.5 mg IV bolus sildenafil): 2.10 ng/mL
- N-desmethyl Sildenafil Concentration ([1]; plasma, subject 1, 120 min after 2.5 mg IV bolus sildenafil): 2.49 ng/mL
- N-desmethyl Sildenafil Concentration ([1]; plasma, subject 1, 178 min after 2.5 mg IV bolus sildenafil): 2.64 ng/mL
- N-desmethyl Sildenafil Concentration ([1]; plasma, subject 1, 242 min after 2.5 mg IV bolus sildenafil): 2.19 ng/mL
- N-desmethyl Sildenafil Concentration ([1]; plasma, subject 1, 360 min after 2.5 mg IV bolus sildenafil): 2.00 ng/mL
- N-desmethyl Sildenafil Concentration ([1]; plasma, subject 1, 480 min after 2.5 mg IV bolus sildenafil): 1.53 ng/mL
- N-desmethyl Sildenafil Concentration ([1]; plasma, subject 2, 15 min after 2.5 mg IV bolus sildenafil): BLQ
- N-desmethyl Sildenafil Concentration ([1]; plasma, subject 2, 30 min after 2.5 mg IV bolus sildenafil): BLQ
- N-desmethyl Sildenafil Concentration ([1]; plasma, subject 2, 60 min after 2.5 mg IV bolus sildenafil): BLQ
- N-desmethyl Sildenafil Concentration ([1]; plasma, subject 2, 90 min after 2.5 mg IV bolus sildenafil): BLQ
- N-desmethyl Sildenafil Concentration ([1]; plasma, subject 2, 122 min after 2.5 mg IV bolus sildenafil): BLQ
- N-desmethyl Sildenafil Concentration ([1]; plasma, subject 2, 180 min after 2.5 mg IV bolus sildenafil): 1.06 ng/mL
- N-desmethyl Sildenafil Concentration ([1]; plasma, subject 2, 240 min after 2.5 mg IV bolus sildenafil): BLQ
- N-desmethyl Sildenafil Concentration ([1]; plasma, subject 2, 360 min after 2.5 mg IV bolus sildenafil): BLQ
- N-desmethyl Sildenafil Concentration ([1]; plasma, subject 2, 480 min after 2.5 mg IV bolus sildenafil): BLQ
- metabolite concentrations ([1]; plasma, subject 2, all times except 180 minutes after sildenafil injection): unmeasurable
- N-desmethyl sildenafil AUC increased compared to healthy subjects ([2]; CTP class A and B cirrhosis): 154%
- mean Cmax of N-desmethyl sildenafil increased compared to normal controls ([2]; CTP class A and B cirrhosis): 87%
- N-desmethyl sildenafil AUC/sildenafil AUC ([2]; healthy subjects): 52%
- N-desmethyl sildenafil AUC/sildenafil AUC ([2]; subjects with CTP Class A and B cirrhosis): 71%

SMILES: CCCc1nn(C)c2c(=O)[nH]c(-c3cc(S(=O)(=O)N4CCN(C)CC4)ccc3OCC)nc12 [Sildenafil, sildenafil]
- clearance lower than mean in healthy volunteers ([1]; second value, for CL 14.9 L/hr vs 40.8 L/hr): 71%
- observed maximum concentration of plasma sildenafil ([1]; subject 1 (first value)): 35 ng/mL
- observed maximum concentration of plasma sildenafil ([1]; subject 2 (second value)): 20.6 ng/mL
- tolerability / safety of IV sildenafil [3]: without side effects
- tolerability / safety of IV sildenafil ([3]; listed as sildenafil): without adverse events; also recorded: safe and tolerable; also recorded: can be safely administered
- adverse events reported at interview ([3]; forty-eight hours after sildenafil injection): did not report any adverse events
- Heart Rate [3, 5]: 53
- Mean Arterial Pressure [3, 5]: 75 mmHg
- Heart Rate [3, 6]: 53
- Mean Arterial Pressure [3, 6]: 78 mmHg
- Heart Rate [3, 7]: 55
- Mean Arterial Pressure [3, 7]: 78 mmHg
- Heart Rate [3, 8]: 51
- Mean Arterial Pressure [3, 8]: 75 mmHg
- Heart Rate [3, 9]: 50
- Mean Arterial Pressure [3, 9]: 79 mmHg
- Heart Rate [3, 10]: 50
- Mean Arterial Pressure [3, 10]: 78 mmHg
- Heart Rate [3, 11]: 53
- Mean Arterial Pressure [3, 11]: 83 mmHg
- Heart Rate [3, 12]: 54
- Mean Arterial Pressure [3, 12]: 83 mmHg
- lowest MAP observed ([3]; subject 1, at 16 and 120 minutes after sildenafil injection): 75
- Heart Rate [3, 13]: 98
- Mean Arterial Pressure [3, 13]: 69 mmHg
- Heart Rate [3, 14]: 98
- Mean Arterial Pressure [3, 14]: 73 mmHg
- Heart Rate [3, 15]: 98
- Mean Arterial Pressure [3, 15]: 75 mmHg
- Heart Rate [3, 16]: 90
- Mean Arterial Pressure [3, 16]: 81 mmHg
- Heart Rate [3, 17]: 97
- Mean Arterial Pressure [3, 17]: 80 mmHg
- Heart Rate [3, 18]: 93
- Mean Arterial Pressure [3, 18]: 75 mmHg
- Heart Rate [3, 19]: 92
- Mean Arterial Pressure [3, 19]: 72 mmHg
- Heart Rate [3, 20]: 94
- Mean Arterial Pressure [3, 20]: 75 mmHg
- lowest MAP ([3]; subject 2, at 15 minutes after sildenafil injection): 69 mmHg
- adverse events ([3]; up to 9 hours after sildenafil injection): No adverse events
- mean clearance of sildenafil reduced compared to normal controls ([2]; CTP class A and B cirrhosis, single 50 mg oral dose): 46%
- dose-corrected mean Cmax [4]: 26.6 ng/mL
- mean half-life [4]: 3.9 h
